Measured values taken from patent publication US9850256B2, “Antibacterial basic biaromatic derivatives with aminoalkoxy substitution” (priority 2014, dated 2017).
≈ marks a conversion by molar mass, not a printed value.

How the values were obtained:
Test in all cases: Bacterial growth minimal inhibitory concentration (microdilution, cation-adjusted Mueller-Hinton Broth)
S. aureus A798 = format: cell-based, Staphylococcus aureus; conditions: multiply-resistant strain (methicillin- and quinolone-resistant); for MIC: Staphylococcus aureus, A798
Experimental: (§1) Minimal Inhibitory Concentrations (MICs; mg/L) were determined in cation-adjusted Mueller-Hinton Broth by a microdilution method following the description given in “Methods for Dilution Antimicrobial Susceptibility Tests for Bacteria that Grow Aerobically”, Approved standard, 7th ed., Clinical and Laboratory Standards Institute (CLSI) Document M7-A7, Wayne, Pa., USA (2006).
(§2) All Example compounds were tested against several Gram positive and Gram negative bacteria. […] Staphylococcus aureus A798 is a multiply-resistant strain (methicillin- and quinolone-resistant), Klebsiella pneumoniae T6474 is a multiply-resistant strain (penicillin-, cephalosporin- and in particular quinolone-resistant), while E. coli ATCC25922 and Pseudomonas aeruginosa ATCC 27853 are quinolone-sensitive strains.

K. pneumoniae T6474 = format: cell-based, Klebsiella pneumoniae; conditions: multiply-resistant strain (penicillin-, cephalosporin- and quinolone-resistant); for MIC: Klebsiella pneumoniae, T6474
Experimental: as §1, §2

P. aeruginosa ATCC 27853 = format: cell-based, Pseudomonas aeruginosa; conditions: quinolone-sensitive strain; for MIC: Pseudomonas aeruginosa, ATCC27853
Experimental: as §1, §2

E. coli ATCC25922 = format: cell-based; conditions: quinolone-sensitive strain; for MIC: Escherichia coli, ATCC25922
Experimental: as §1, §2

| Structure (SMILES) | MIC (S. aureus A798) [µg/mL] | MIC (K. pneumoniae T6474) [µg/mL] | MIC (P. aeruginosa ATCC 27853) [µg/mL] | MIC (E. coli ATCC25922) [µg/mL] | MIC for S. aureus A798 (S. aureus A798) [µg/mL] | MIC for K. pneumoniae T6474 (K. pneumoniae T6474) [µg/mL] | MIC for P. aeruginosa ATCC 27853 (P. aeruginosa ATCC 27853) [µg/mL] | MIC for E. coli ATCC25922 (E. coli ATCC25922) [µg/mL] |
| --- | --- | --- | --- | --- | --- | --- | --- | --- |
| O=C1COc2ccc(N3C[C@H](CCNCc4cccc(-c5cccc(OC6CNC6)c5)c4)OC3=O)nc2N1 [Example $105, 6-[(S)-5-(2-{[3′-(azetidin-3-yloxy)-biphenyl-3-ylmethyl]-amino}-ethyl)-2-oxo-oxazolidin-3-yl]-4H-pyrido[3,2-b][1,4]oxazin-3-one] | 2 (≈ 3.88 µM) | 2 (≈ 3.88 µM) | 2 (≈ 3.88 µM) | 2 (≈ 3.88 µM) | – | – | – | – |
| O=C1COc2ccc(N3C[C@H](CCNCc4cccc(-c5cccc(OCC6CNC6)n5)c4)OC3=O)nc2N1 [Example $106, 6-[(S)-5-(2-{3-[6-(azetidin-3-ylmethoxy)-pyridin-2-yl]-benzylamino}-ethyl)-2-oxo-oxazolidin-3-yl]-4H-pyrido[3,2-b][1,4]oxazin-3-one] | 2 (≈ 3.77 µM) | 4 (≈ 7.54 µM) | 1 (≈ 1.88 µM) | 2 (≈ 3.77 µM) | – | – | – | – |
| O=C1COc2ccc(N3C[C@H](CCNCc4cccc(-c5cccc(OC6CNC6)n5)c4)OC3=O)nc2N1 [Example $107, 6-[(S)-5-(2-{3-[6-(azetidin-3-yloxy)-pyridin-2-yl]-benzylamino}-ethyl)-2-oxo-oxazolidin-3-yl]-4H-pyrido[3,2-b][1,4]oxazin-3-one] | 1 (≈ 1.94 µM) | 2 (≈ 3.87 µM) | 0.5 (≈ 0.968 µM) | 0.5 (≈ 0.968 µM) | – | – | – | – |
| O=C1COc2ccc(N3C[C@H](CCNCc4cccc(-c5cccc(OC[C@@H]6CCN6)n5)c4)OC3=O)nc2N1.O=CO [Example $108, 6-[(S)-5-(2-{3-[6-((S)-1-azetidin-2-ylmethoxy)-pyridin-2-yl]-benzylamino}-ethyl)-2-oxo-oxazolidin-3-yl]-4H-pyrido[3,2-b][1,4]oxazin-3-oneformate] | – | – | – | – | 2 | 2 | 0.5 | 1 |
| CN1CC(COc2cccc(-c3cccc(CNCC[C@H]4CN(c5ccc6c(n5)NC(=O)CO6)C(=O)O4)c3)n2)C1 [Example $113, 6-[(S)-5-(2-{3-[6-(1-methyl-azetidin-3-ylmethoxy)-pyridin-2-yl]-benzylamino}-ethyl)-2-oxo-oxazolidin-3-yl]-4H-pyrido[3,2-b][1,4]oxazin-3-one] | 0.5 (≈ 0.918 µM) | 2 (≈ 3.67 µM) | 2 (≈ 3.67 µM) | 2 (≈ 3.67 µM) | – | – | – | – |
| O=C1COc2ccc(N3C[C@H](CCNCc4cccc(-c5cc(OC6CNC6)cnn5)c4)OC3=O)nc2N1 [Example $114, 6-[(S)-5-(2-{3-[5-(azetidin-3-yloxy)-pyridazin-3-yl]-benzylamino}-ethyl)-2-oxo-oxazolidin-3-yl]-4H-pyrido[3,2-b][1,4]oxazin-3-one] | 16 (≈ 30.9 µM) | 8 (≈ 15.5 µM) | 1 (≈ 1.93 µM) | 4 (≈ 7.73 µM) | – | – | – | – |
| O=C1COc2ccc(N3C[C@H](CCNCc4cccc(-c5nccc(O[C@@H]6CCNC6)n5)c4)OC3=O)nc2N1 [Example $115, 6-[(S)-2-oxo-5-(2-{3-[4-((R)-pyrrolidin-3-yloxy)-pyrimidin-2-yl]-benzylamino}-ethyl)-oxazolidin-3-yl]-4H-pyrido[3,2-b][1,4]oxazin-3-one] | 4 (≈ 7.52 µM) | 16 (≈ 30.1 µM) | 2 (≈ 3.76 µM) | 4 (≈ 7.52 µM) | – | – | – | – |
| O=C1COc2ccc(N3C[C@H](CCNCc4cccc(-c5cc(O[C@@H]6CCNC6)ncn5)c4)OC3=O)nc2N1 [Example $116, 6-[(S)-2-oxo-5-(2-{3-[6-((R)-pyrrolidin-3-yloxy)-pyrimidin-4-yl]-benzylamino}-ethyl)-oxazolidin-3-yl]-4H-pyrido[3,2-b][1,4]oxazin-3-one] | 4 (≈ 7.52 µM) | 8 (≈ 15 µM) | 2 (≈ 3.76 µM) | 2 (≈ 3.76 µM) | – | – | – | – |
| O=C1COc2ccc(N3C[C@H](CCNCc4cccc(-c5cccc(O[C@@H]6CCNC6)n5)c4)OC3=O)nc2N1 [Example $118, 6-[(S)-2-oxo-5-(2-{3-[6-((R)-pyrrolidin-3-yloxy)-pyridin-2-yl]-benzylamino}-ethyl)-oxazolidin-3-yl]-4H-pyrido[3,2-b][1,4]oxazin-3-one] | 2 (≈ 3.77 µM) | 2 (≈ 3.77 µM) | 1 (≈ 1.88 µM) | 1 (≈ 1.88 µM) | – | – | – | – |
| O=C1COc2ccc(N3C[C@H](CCNCc4cccc(-c5cccc(O[C@H]6CCNC6)n5)c4)OC3=O)nc2N1 [Example $119, 6-[(S)-2-oxo-5-(2-{3-[6-((S)-pyrrolidin-3-yloxy)-pyridin-2-yl]-benzylamino}-ethyl)-oxazolidin-3-yl]-4H-pyrido[3,2-b][1,4]oxazin-3-one] | 0.5 (≈ 0.942 µM) | 1 (≈ 1.88 µM) | 0.5 (≈ 0.942 µM) | 1 (≈ 1.88 µM) | – | – | – | – |
